Laboratory results from patent publication US20160038485A1, “PHASE 2 INDUCERS AND RELATED SIGNALING PATHWAYS PROTECT CARTILAGE AGAINST INFLAMMATION, APOPTOSIS AND STRESS” (THE JOHNS HOPKINS UNIVERSITY, priority 2006, published 2016).

Tests used:
Format in all cases: cell-based, human
[1] = test system: T/C28a2 chondrocytic cells; test: DNA microarray analysis of shear-induced mRNA response of chondrocytes; design: COX-1 (cyclooxygenase-1) microarray intensity ratio (shear/static): dose or concentration left out as unconfirmed; details: 20 dyn/cm2, 48 hr, mean ± SD
Description: (§1) Cell Culture and Shear Stress Exposure: Human T/C28a2 chondrocytic cells were grown (37° C., 5% CO2) in 1:1 Ham's F-12/DMEM (Biowhittaker) supplemented with 10% FBS. Prior to shear exposure, T/C28a2 cells were incubated for 24 hours in serum-free medium containing 1% Nutridoma-SP (Roche), a low-protein serum replacement that maintains chondrocyte phenotype. Primary HUVECs were cultured as described (Goldring, M. B., 2004). T/C28a2 cells were exposed to shear stress in media containing 1% Nutridoma by use of a parallel-plate flow chamber with a recirculating flow loop (37° C., 5% CO2) (10). HUVECs were treated similarly by circulating media supplemented with 10% FBS.
Microarray Hybridization and Analysis: Cy-3- and Cy-5-labeled probes were mixed, dried, resuspended in hybridization buffer (50% formamide, 10×SSC, 0.2% SDS, COT-I DNA, Poly(A)-DNA), and denatured. The probes were added to microarray slides printed with a set of 32,448 or 39,936 expressed sequence tags (ESTs), allowed to hybridize at 42° C. overnight, and processed as described (Abulencia, J. P., et al. 2003. Hegde, P. et al. 2000). Expression ratios were derived using TIGR Spotfinder (Abulencia, J. P. et al. 2003, Hegde, P. et al. 2000). Differentially expressed genes were identified by Significance Analysis of Microarrays, and analyzed with the software TMEV (Abulencia, J. P. et al. 2003).
Quantitative Real-Time PCR (qRT-PCR) was used to verify DNA microarray data. Incorporation of SYBR Green into PCR products was monitored with the 7900HT detection system.

ARE-driven NQO1 promoter = test: Promoter activity assay (pNQO1/ARE-luc); details: transfected T/C28a2 cells; SFN 1.25 μM or D3T 5 μM, 24 h, static conditions
Description: Transient Transfection and Plasmid Constructs: T/C28a2 cells were transfected with 10 μg of plasmid and 2 μg of control with Lipofectamine and Plus Reagent (Invitrogen). Cells were allowed to recover for 3 hours, incubated overnight in medium containing 1% Nutridoma, and exposed to the indicated treatments. Efficiency was assessed by flow cytometry with pEGFP-N2 (BD Biosciences). pCMV-mNrf2 and pNQO1/ARE-luc constructs were provided by N. Wakabayashi (Wakabayashi, N. et al. 2004). Igarashi, K., et al. 1994), and pBJ M-pl 10*-myc, pBJ M<<pl 10-UR, and pCG pi 10 wt constructs were provided by A. Kippel (Hu, Q., et al. 1995).
Promoter Activity Assay: T/C28a2 cells were transfected with 10 μg of pNQO1/ARE-luc and 1 μg each of pEGFP-N2 and pSV40-hRL2 (Promega) to normalize transfection efficiency. Firefly and Renilla luciferase activities were measured using the Dual-Luciferase Report Assay kit (Promega).

NQO1 = NQO1 enzyme activity in shear-activated chondrocytes; details: T/C28a2, high shear (20 dyn/cm^2); SFN 1.25 μM, D3T 5 μM, CAY10404 6.75 μM, NS398 30 μM
Description: as §1
(§2) Cell Viability, NQO1 activity, Glutathione levels, and Prostaglandin (PG)E2 production: Cell viability was monitored with the MTT assay (Gao, X. et al. 2001). NQO1 activity and total GSH (oxidized and reduced) levels of cell lysates were determined in 96-well microtiter plates. PGE2 levels were determined in media by the Prostaglandin E2 monoclonal EIA kit (Cayman Chemical).

COX-2 = test: Intracellular COX-2 protein staining, flow cytometry; details: D3T 5 μM; 20 dyn/cm^2, 48 hours
Description: as §1
(§3) Intracellular Protein Staining and Western Blots: T/C28a2 cells were fixed in 1.0% formaldehyde for 10 min at 37° C., permeabilized in 90% methanol for 20 minutes on ice, and incubated at 25° C. for 10 min in blocking buffer (0.5% BSA). Specimens were then incubated with fluorophore-conjugated monoclonal antibodies specific for COX-I (COX-1/FITC) and COX-2 (COX-2/PE) (Cayman Chemical) or isotype controls (BD Biosciences) for 30 min, washed 2× in blocking buffer, and analyzed by flow cytometry. For Western blots, total cell lysates were subjected to SDS/PAGE, transferred to a membrane, and probed with caspase-9 and β-actin antibodies (Upstate).

T/C28a2 cells [2] = test: Shear-induced PGE2 production (EIA of culture media); details: D3T 5 μM; fluid shear 48 hours
Description: as §1, §2

T/C28a2 cells [3] = test: Shear-induced apoptosis: DNA fragmentation (TUNEL) and mitochondrial membrane depolarization; details: 20 dyn/cm^2, 48 h; D3T 5 μM, CAY10404 6.75 μM, NS398 30 μM
Description: as §1
DNA Fragmentation and Mitochondrial Depolarization: For DNA fragmentation, cells were fixed in 4% paraformaldehyde for 1 hour at 25° C., washed 2× in PBS, and permeabilized briefly in 0.1% Triton-X100/0.1% sodium citrate on ice. Subsequently, cells were washed 2× in PBS, labeled using the In Situ Cell Death Kit (Roche), and analyzed by flow cytometry. To quantify Mitochondrial Membrane Potential (MMP), cells were labeled using the MitoProbe JC-I Kit (Molecular Probes).

caspase-9 = test: Caspase-9 immunoblot analysis; details: high shear 20 dyn/cm^2
Description: as §1, §3

COX-I = test: Intracellular COX-1 protein staining, flow cytometry; details: D3T 5 μM; static or laminar shear 5 or 20 dyn/cm^2, 48 hours
Description: as §1, §3

T/C28a2 cells [4] = test: Total glutathione (GSH) levels in shear-activated chondrocytes; details: T/C28a2, high shear (20 dyn/cm^2); SFN 1.25 μM, CAY10404 6.75 μM, NS398 30 μM
Description: as §1, §2

[5] = 5 μM D3T (shear) vs 0.1% DMSO (static)

## S=c1ccss1 [D3T, 1,2-dithiole-3-thione]
[1]; [5]
  COX-2 (cyclooxygenase-2) microarray intensity ratio (shear/static): 1.3 ± 0.2
  Caspase-9 precursor microarray intensity ratio (shear/static): 0.8 ± 0.1
  GCLR (γ-glutamylcysteine ligase) microarray intensity ratio (shear/static): 1.6 ± 0.1
  GST μ1 (glutathione S-transferase) microarray intensity ratio (shear/static): 1.6 ± 0.1
  Glutathione reductase microarray intensity ratio (shear/static): 2.8 ± 0.1
  HO-1 (Heme Oxygenase-1) microarray intensity ratio (shear/static): 1.2 ± 0.1
  HO-2 (Heme Oxygenase-2) microarray intensity ratio (shear/static): 0.9 ± 0.1
  JNK2 (c-jun N-terminal kinase 2) microarray intensity ratio (shear/static): 1.6 ± 0.1
  NQO1 (NAD(P)H:quinone reductase-1) microarray intensity ratio (shear/static): 1.3 ± 0.1
  Nrf2 (NF-E2 related factor 2) microarray intensity ratio (shear/static): 1.3 ± 0.1
  PI3K (phosphoinositol kinase 3) microarray intensity ratio (shear/static): 0.8 ± 0.2
  Transcription Factor AP-1 (c-jun) microarray intensity ratio (shear/static): 1.4 ± 0.1
  UDP-glucuronosyltransferase microarray intensity ratio (shear/static): 1.0 ± 0.1
[1]
  COX-1 (cyclooxygenase-1) microarray intensity ratio (shear/static): 1.3 ± 0.1
ARE-driven NQO1 promoter
  ARE-driven NQO1 promoter luciferase activity: increases the luciferase activity
NQO1
  shear-induced suppression of NQO1 activity: likewise effective in suppressing the shear-mediated reduction of phase 2 enzyme activity
COX-2
  COX-2 protein expression in chondrocytes subjected to high shear: nearly abrogated
T/C28a2 cells [2]
  PGE2 production in chondrocytes subjected to high shear: nearly abrogated
T/C28a2 cells [3]
  shear-induced apoptosis (DNA fragmentation TUNEL, mitochondrial membrane depolarization MMP): essentially abrogated
caspase-9
  expression of proform (46 kDa) and active form (34 kDa) of caspase-9: substantially reduced expression
COX-I
  COX-I expression: remains unchanged

## C[S@@+]([O-])CCCCN=C=S [SFN, (−)-1-isothiocyanato-4(R)-(methylsulfinyl)-butane]
ARE-driven NQO1 promoter
  ARE-driven NQO1 promoter luciferase activity: increases the luciferase activity
NQO1
  shear-induced suppression of NQO1 activity: abolished
T/C28a2 cells [4]
  shear-induced suppression of intracellular GSH levels: abolished
